From US20240197680A1, “VORUCICLIB DOSING REGIMENS AND METHODS OF TREATMENT INCLUDING THE SAME” (MEI Pharma, Inc., priority 2021, published 2024)
Read-outs that look alike come from different tables or passages of the source.

How the values were obtained:
Format in all cases: physicochemical
[1] = Hygroscopicity of voruciclib malonate
[2] = pH range solubility in biorelevant media
Protocol: In general, voruciclib was more prone to gel at suspension concentrations >5 mg/mL and solubilities >0.5 mg/mL.

[3] = pKa of voruciclib malonate
[4] = Stability of voruciclib malonate Batch 02MEI06-01-107; set-up: key to Organic Impurities by HPLC: RRT 1.05: —: below reporting threshold
Text: The formulation contains colloidal silicon dioxide. The manufacturing process for this batch was similar to that described in Example 10. Stability study samples were packaged in the containers described in Example 9.

Gelling in aqueous media = conditions: in water or aqueous buffers across the pH range
Protocol: Voruciclib can form a gel when dissolved in various media, depending on the other chemicals present. […] In general, voruciclib was more prone to gel at suspension concentrations >5 mg/mL and solubilities >0.5 mg/mL.

SMILES: CN1CC[C@@H](c2c(O)cc(O)c3c(=O)cc(-c4ccc(C(F)(F)F)cc4Cl)oc23)[C@@H]1CO.O=C(O)CC(=O)O [Voruciclib Malonate, (2R,3S)-3-(2-(2-chloro-4-(trifluoromethyl)phenyl)-5,7-dihydroxy-4-oxo-4H-chromen-8-yl)-2-(hydroxymethyl)-1-methylpyrrolidin-1-ium-2-carboxyacetate]
- Hygroscopicity [1]: Non-hygroscopic
- Hygroscopicity ([1]; listed as Form 1): non-hygroscopic
- solubility ([2]; FEDGAS biorelevant medium, pH 3, fassgf or other biorelevant, thermodynamic from solid, pH 3.0 (FEDGAS), late stage of stomach emptying, read-out: Solubility): 11300 µg/mL
- solubility ([2]; FEDGAS biorelevant medium, pH 4.5, fassgf or other biorelevant, thermodynamic from solid, pH 4.5 (FEDGAS), mid stage of stomach emptying, read-out: Solubility): 4350 µg/mL
- solubility ([2]; FEDGAS biorelevant medium, pH 6, fassgf or other biorelevant, thermodynamic from solid, pH 6.0 (FEDGAS), early stage of stomach emptying, read-out: Solubility): 2880 µg/mL
- solubility ([2]; FaSSGF biorelevant medium, pH 1.6, fassgf or other biorelevant, thermodynamic from solid, pH 1.6 (FaSSGF), Stomach after glass of water, tested in duplicate, read-out: Solubility): > 13400 µg/mL
- solubility ([2]; FaSSIF biorelevant medium, pH 6.5, fassif, thermodynamic from solid, pH 6.5 (FaSSIF), Upper intestine after a glass of water, read-out: Solubility): 230 µg/mL
- solubility ([2]; FeSSIF biorelevant medium, pH 5, fessif, thermodynamic from solid, pH 5.0 (FeSSIF), Upper intestine after a meal, read-out: Solubility): < 4 µg/mL
- solubility ([2]; pH 1.6 (FaSSGF), Stomach after glass of water, tested in duplicate): 11050 µg/mL
- pKa ([3]; first value listed): 6.46
- pKa ([3]; second value listed): 9.59
- pKa ([3]; third value listed): 12.1
- changes observed after storage ([4]; 6-months at 25° C./60% RH or 6-months at 40° C./75% RH): No significant changes
- Appearance by visual inspection ([4]; 25° C./60% RH, 1 months): Light
- Assay by HPLC (% w/w, as is) ([4]; 25° C./60% RH, 1 months): 96.8 % w/w
- Organic Impurities by HPLC: RRT 0.83 ([4]; 25° C./60% RH, 1 months): 0.06 % area
- Organic Impurities by HPLC: RRT 0.97 ([4]; 25° C./60% RH, 1 months): 0.55 % area
- Organic Impurities by HPLC: RRT 0.99 ([4]; 25° C./60% RH, 1 months): 0.59 % area
- Organic Impurities by HPLC: RRT 1.05 ([4]; 25° C./60% RH, 1 months): 0.09 % area
- Organic Impurities by HPLC: RRT 1.06 ([4]; 25° C./60% RH, 1 months): 0.08 % area
- Purity by HPLC ([4]; 25° C./60% RH, 1 months): 98.6 % area
- Total Impurities ([4]; 25° C./60% RH, 1 months): 1.38 % area
- Water Content by KF ([4]; 25° C./60% RH, 1 months): 0.47 % w/w
- XRPD ([4]; 25° C./60% RH, 1 months): Crystalline
- Appearance by visual inspection ([4]; 25° C./60% RH, 3 months): Light
- Assay by HPLC (% w/w, as is) ([4]; 25° C./60% RH, 3 months): 97.3 % w/w
- Organic Impurities by HPLC: RRT 0.83 ([4]; 25° C./60% RH, 3 months): 0.06 % area
- Organic Impurities by HPLC: RRT 0.97 ([4]; 25° C./60% RH, 3 months): 0.56 % area
- Organic Impurities by HPLC: RRT 0.99 ([4]; 25° C./60% RH, 3 months): 0.59 % area
- Organic Impurities by HPLC: RRT 1.05 ([4]; 25° C./60% RH, 3 months): 0.06 % area
- Organic Impurities by HPLC: RRT 1.06 ([4]; 25° C./60% RH, 3 months): 0.08 % area
- Purity by HPLC ([4]; 25° C./60% RH, 3 months): 98.7 % area
- Total Impurities ([4]; 25° C./60% RH, 3 months): 1.36 % area
- Water Content by KF ([4]; 25° C./60% RH, 3 months): 0.18 % w/w
- XRPD ([4]; 25° C./60% RH, 3 months): Crystalline
- Appearance by visual inspection ([4]; 25° C./60% RH, 6 months): Light
- Assay by HPLC (% w/w, as is) ([4]; 25° C./60% RH, 6 months): 97.7 % w/w
- Organic Impurities by HPLC: RRT 0.83 ([4]; 25° C./60% RH, 6 months): 0.05 % area
- Organic Impurities by HPLC: RRT 0.97 ([4]; 25° C./60% RH, 6 months): 0.52 % area
- Organic Impurities by HPLC: RRT 0.99 ([4]; 25° C./60% RH, 6 months): 0.58 % area
- Organic Impurities by HPLC: RRT 1.05 ([4]; 25° C./60% RH, 6 months): 0.05 % area
- Organic Impurities by HPLC: RRT 1.06 ([4]; 25° C./60% RH, 6 months): 0.08 % area
- Purity by HPLC ([4]; 25° C./60% RH, 6 months): 98.7 % area
- Total Impurities ([4]; 25° C./60% RH, 6 months): 1.32 % area
- Water Content by KF ([4]; 25° C./60% RH, 6 months): 0.36 % w/w
- XRPD ([4]; 25° C./60% RH, 6 months): Crystalline
- Appearance by visual inspection ([4]; 25° C./60% RH, Initial): Pale
- Assay by HPLC (% w/w, as is) ([4]; 25° C./60% RH, Initial): 96.9 % w/w
- Organic Impurities by HPLC: RRT 0.83 ([4]; 25° C./60% RH, Initial): 0.06 % area
- Organic Impurities by HPLC: RRT 0.97 ([4]; 25° C./60% RH, Initial): 0.55 % area
- Organic Impurities by HPLC: RRT 0.99 ([4]; 25° C./60% RH, Initial): 0.62 % area
- Organic Impurities by HPLC: RRT 1.05 ([4]; 25° C./60% RH, Initial): 0.15 % area
- Organic Impurities by HPLC: RRT 1.06 ([4]; 25° C./60% RH, Initial): 0.11 % area
- Purity by HPLC ([4]; 25° C./60% RH, Initial): 98.5 % area
- Total Impurities ([4]; 25° C./60% RH, Initial): 1.53 % area
- Water Content by KF ([4]; 25° C./60% RH, Initial): 0.56 % w/w
- XRPD ([4]; 25° C./60% RH, Initial): Crystalline
- Appearance ([4]; 40° C./75% RH, 1 months): Light
- Assay by HPLC (% w/w. as is) ([4]; 40° C./75% RH, 1 months): 96.4 % w/w
- Organic Impurities by HPLC: RRT 0.83 ([4]; 40° C./75% RH, 1 months): 0.06 % Area
- Organic Impurities by HPLC: RRT 0.97 ([4]; 40° C./75% RH, 1 months): 0.56 % Area
- Organic Impurities by HPLC: RRT 0.99 ([4]; 40° C./75% RH, 1 months): 0.58 % Area
- Organic Impurities by HPLC: RRT 1.05 ([4]; 40° C./75% RH, 1 months): 0.06 % Area
- Organic Impurities by HPLC: RRT 1.06 ([4]; 40° C./75% RH, 1 months): 0.08 % Area
- Purity by HPLC ([4]; 40° C./75% RH, 1 months): 98.7 % area
- Total Impurities ([4]; 40° C./75% RH, 1 months): 1.33 % area
- Water Content by KF ([4]; 40° C./75% RH, 1 months): 0.44 % w/w
- XRPD ([4]; 40° C./75% RH, 1 months): Crystalline
- Appearance ([4]; 40° C./75% RH, 3 months): Light
- Assay by HPLC (% w/w. as is) ([4]; 40° C./75% RH, 3 months): 97.3 % w/w
- Organic Impurities by HPLC: RRT 0.83 ([4]; 40° C./75% RH, 3 months): 0.06 % Area
- Organic Impurities by HPLC: RRT 0.97 ([4]; 40° C./75% RH, 3 months): 0.56 % Area
- Organic Impurities by HPLC: RRT 0.99 ([4]; 40° C./75% RH, 3 months): 0.59 % Area
- Organic Impurities by HPLC: RRT 1.05 ([4]; 40° C./75% RH, 3 months): —
- Organic Impurities by HPLC: RRT 1.06 ([4]; 40° C./75% RH, 3 months): 0.08 % Area
- Purity by HPLC ([4]; 40° C./75% RH, 3 months): 98.7 % area
- Total Impurities ([4]; 40° C./75% RH, 3 months): 1.29 % area
- Water Content by KF ([4]; 40° C./75% RH, 3 months): 0.14 % w/w
- XRPD ([4]; 40° C./75% RH, 3 months): Crystalline
- Appearance ([4]; 40° C./75% RH, 6 months): Light
- Assay by HPLC (% w/w. as is) ([4]; 40° C./75% RH, 6 months): 97.5 % w/w
- Organic Impurities by HPLC: RRT 0.83 ([4]; 40° C./75% RH, 6 months): 0.05 % Area
- Organic Impurities by HPLC: RRT 0.97 ([4]; 40° C./75% RH, 6 months): 0.52 % Area
- Organic Impurities by HPLC: RRT 0.99 ([4]; 40° C./75% RH, 6 months): 0.58 % Area
- Organic Impurities by HPLC: RRT 1.05 ([4]; 40° C./75% RH, 6 months): —
- Organic Impurities by HPLC: RRT 1.06 ([4]; 40° C./75% RH, 6 months): 0.08 % Area
- Purity by HPLC ([4]; 40° C./75% RH, 6 months): 98.8 % area
- Total Impurities ([4]; 40° C./75% RH, 6 months): 1.24 % area
- Water Content by KF ([4]; 40° C./75% RH, 6 months): 0.46 % w/w
- XRPD ([4]; 40° C./75% RH, 6 months): Crystalline
- Appearance ([4]; 40° C./75% RH, Initial): Pale
- Assay by HPLC (% w/w. as is) ([4]; 40° C./75% RH, Initial): 96.9 % w/w
- Organic Impurities by HPLC: RRT 0.83 ([4]; 40° C./75% RH, Initial): 0.06 % Area
- Organic Impurities by HPLC: RRT 0.97 ([4]; 40° C./75% RH, Initial): 0.55 % Area
- Organic Impurities by HPLC: RRT 0.99 ([4]; 40° C./75% RH, Initial): 0.62 % Area
- Organic Impurities by HPLC: RRT 1.05 ([4]; 40° C./75% RH, Initial): 0.15 % Area
- Organic Impurities by HPLC: RRT 1.06 ([4]; 40° C./75% RH, Initial): 0.11 % Area
- Purity by HPLC ([4]; 40° C./75% RH, Initial): 98.5 % area
- Total Impurities ([4]; 40° C./75% RH, Initial): 1.53 % area
- Water Content by KF ([4]; 40° C./75% RH, Initial): 0.56 % w/w
- XRPD ([4]; 40° C./75% RH, Initial): Crystalline
- gel formation (Gelling in aqueous media): does not form a gel
